Measured values taken from patent publication US6251919A, “Heterocyclic substituted aniline calcium channel blockers” (Warner-Lambert, priority 1999, dated 2001).
pIC50: −log10 of the molar value. “And” between values parts separate entries of the source, which are not always exact repeats. Equal entries are not always repeated.

Target: T1, N-type Ca^2+ channel in IMR-32 cells (Homo sapiens, UniProt Q00975)
T1 construct: host or cells: IMR-32 (differentiated with dibutyryl cAMP and bromodeoxyuridine)
T1 sequence (Q00975 whole entry): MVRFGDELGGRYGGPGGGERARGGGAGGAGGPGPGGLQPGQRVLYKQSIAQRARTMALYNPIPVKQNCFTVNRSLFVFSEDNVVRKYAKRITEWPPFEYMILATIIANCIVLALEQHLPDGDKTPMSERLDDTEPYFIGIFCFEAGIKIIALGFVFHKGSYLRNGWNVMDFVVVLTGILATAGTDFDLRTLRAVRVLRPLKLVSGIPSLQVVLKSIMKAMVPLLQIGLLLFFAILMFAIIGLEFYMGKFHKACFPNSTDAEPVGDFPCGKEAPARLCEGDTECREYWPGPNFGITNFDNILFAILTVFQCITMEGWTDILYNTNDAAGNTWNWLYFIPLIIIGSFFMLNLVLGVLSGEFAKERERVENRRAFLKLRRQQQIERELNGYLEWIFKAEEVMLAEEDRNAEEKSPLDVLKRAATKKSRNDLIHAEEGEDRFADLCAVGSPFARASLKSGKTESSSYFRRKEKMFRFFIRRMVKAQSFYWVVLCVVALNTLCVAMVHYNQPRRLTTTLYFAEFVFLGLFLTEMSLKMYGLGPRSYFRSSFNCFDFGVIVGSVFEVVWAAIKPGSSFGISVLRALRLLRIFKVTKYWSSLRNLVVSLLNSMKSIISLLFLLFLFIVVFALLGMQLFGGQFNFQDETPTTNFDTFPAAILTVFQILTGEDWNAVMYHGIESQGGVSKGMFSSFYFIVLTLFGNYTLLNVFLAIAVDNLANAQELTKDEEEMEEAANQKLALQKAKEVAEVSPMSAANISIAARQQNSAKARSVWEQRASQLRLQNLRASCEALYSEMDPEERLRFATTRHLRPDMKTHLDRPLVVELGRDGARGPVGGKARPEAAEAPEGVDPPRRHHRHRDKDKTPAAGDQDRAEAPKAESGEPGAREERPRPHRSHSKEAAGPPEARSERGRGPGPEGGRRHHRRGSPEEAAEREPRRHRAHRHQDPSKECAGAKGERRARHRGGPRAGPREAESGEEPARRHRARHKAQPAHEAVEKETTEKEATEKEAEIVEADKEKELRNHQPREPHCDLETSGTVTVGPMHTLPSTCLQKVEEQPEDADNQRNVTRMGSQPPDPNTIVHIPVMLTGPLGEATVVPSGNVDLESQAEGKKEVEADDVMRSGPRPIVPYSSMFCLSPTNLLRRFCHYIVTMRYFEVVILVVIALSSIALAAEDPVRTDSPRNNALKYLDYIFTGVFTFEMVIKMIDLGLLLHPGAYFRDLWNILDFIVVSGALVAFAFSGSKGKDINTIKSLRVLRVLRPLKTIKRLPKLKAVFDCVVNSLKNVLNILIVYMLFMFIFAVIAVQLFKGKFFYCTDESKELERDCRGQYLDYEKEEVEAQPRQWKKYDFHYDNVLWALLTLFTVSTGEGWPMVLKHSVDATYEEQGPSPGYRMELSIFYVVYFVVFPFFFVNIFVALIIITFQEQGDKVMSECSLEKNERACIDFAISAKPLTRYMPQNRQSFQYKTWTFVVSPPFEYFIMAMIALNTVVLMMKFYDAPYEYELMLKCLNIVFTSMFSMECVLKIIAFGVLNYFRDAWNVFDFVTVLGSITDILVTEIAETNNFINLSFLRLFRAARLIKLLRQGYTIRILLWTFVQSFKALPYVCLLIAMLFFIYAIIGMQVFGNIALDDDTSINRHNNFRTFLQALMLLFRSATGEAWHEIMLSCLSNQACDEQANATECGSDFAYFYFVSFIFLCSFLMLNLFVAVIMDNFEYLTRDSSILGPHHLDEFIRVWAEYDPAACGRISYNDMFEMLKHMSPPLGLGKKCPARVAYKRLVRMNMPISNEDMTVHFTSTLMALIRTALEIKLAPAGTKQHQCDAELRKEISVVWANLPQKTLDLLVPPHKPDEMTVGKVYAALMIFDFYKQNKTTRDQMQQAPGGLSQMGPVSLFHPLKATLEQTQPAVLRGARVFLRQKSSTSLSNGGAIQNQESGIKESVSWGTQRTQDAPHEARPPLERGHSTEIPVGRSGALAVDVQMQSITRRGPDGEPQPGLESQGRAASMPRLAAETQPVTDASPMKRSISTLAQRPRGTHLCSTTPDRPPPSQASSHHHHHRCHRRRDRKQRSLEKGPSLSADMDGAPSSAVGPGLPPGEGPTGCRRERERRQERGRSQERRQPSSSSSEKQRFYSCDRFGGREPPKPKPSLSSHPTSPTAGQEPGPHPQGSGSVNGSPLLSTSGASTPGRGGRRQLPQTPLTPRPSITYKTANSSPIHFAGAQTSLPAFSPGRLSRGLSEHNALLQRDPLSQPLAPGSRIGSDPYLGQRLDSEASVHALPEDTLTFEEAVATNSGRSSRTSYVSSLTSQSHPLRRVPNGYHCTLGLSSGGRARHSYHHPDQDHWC
Experiment: N-type Ca2+ channel blockade in IMR-32 cells (fluorescent Ca2+ indicator Indo-1)
Assay type: cell-based
Details: 5 μM nitrendipine present; for inhibition at 1 µM: IMR-32, 1 μM; for inhibition at 10 µM: IMR-32, 10 μM

Row | Structure (SMILES) | inhibition at 1 µM [%] | inhibition at 10 µM [%] | pIC50 | IMR 32 % of Blockade @ 1 μM (1 μM)
1 | CC(C)=CCN(c1ccc(OCc2ccccc2)cc1)C1CCN(Cc2ccc(C(C)(C)C)cc2)CC1 [Example 3, (4-Benzyloxy-phenyl)-[1-(4-tert-butyl-benzyl)-piperidin-4-yl]-(3-methyl-but-2-enyl)-amine] | 96 | – | – | –
2 | CC(C)=CCN(c1ccc(OCc2ccccc2)cc1)C1CCN(Cc2ccc(Br)cc2)CC1 [Example 4, (4-Benzyloxy-phenyl)-[1-(4-bromo-benzyl)-piperidin4-yl]-(3-methyl-but-2-enyl)-amine] | 63 | 94 | – | –
3 | CC(C)=CCN(c1ccc(OCc2ccccc2)cc1)C1CCN(Cc2ccccn2)CC1 [Example 9, (4-Benzyloxy-phenyl)-(3-methyl-but-2-enyl)-(1-pyridin-2-ylmethyl-piperidin-4-yl)-amine] | 30 | 100 | – | –
4 | CC(C)=CCN(c1ccc(OCc2ccccc2)cc1)C1CCN(C2CCOCC2)CC1 [Example 10, (4-Benyloxy-phenyl)-(3-methyl-but-2-enyl)-[1-(tetrahydro-pyran4-yl)-piperidin-4-yl]-amine] | 15 | 62 | – | –
5 | CC(C)=CCN(c1ccc(OCc2ccccc2)cc1)C1CCN(C(=O)C2CCCCN2CCC(C)C)CC1 (stereo not drawn) [Example 11, {4-[(4-Benzyloxy-phenyl)-(3-methyl-but-2-enyl)-amino]-piperidin-1-yl}-[1-(3-methyl-butyl)-piperidin-2-yl]-methanone] | 41 | 80 | – | –
6 | CC(C)=CCN(c1ccc(OCc2ccccc2)cc1)C1CCN(C(=O)C2CCCN(CCC(C)C)C2)CC1 (stereo not drawn) [Example 12, {4-[(4-Benzyloxy-phenyl)-(3-methyl-but-2-enyl)-amino]-piperidin-1-yl}-[1-(3-methyl-butyl)-piperidin-3-yl]-methanone] | 49 | 75 | – | –
7 | CC(C)=CCN(c1ccc(OCc2ccccc2)cc1)C1CCN(C(=O)C2CCN(CCC(C)C)CC2)CC1 [Example 13, {4-[(4-Benzyloxy-phenyl)-(3-methyl-but-2-enyl)-amino]-piperidin-1-yl}-[1-(3-methyl-butyl)-piperidin-4-yl]-methanone] | 37 | 75 | – | –
8 | CC(C)=CCN(c1ccc(OCc2ccccc2)cc1)C1CCN(C(=O)C2CN(C)CCN2CCC(C)C)CC1 (stereo not drawn) [Example 14, {4-[(4-Benzyloxy-phenyl)-(3-methyl-but-2-enyl)-amino]-piperidin-1-yl}-[4-methyl-1-(3-methyl-butyl)-piperazin-2-yl]-methanone] | 44 | 88 | – | –
9 | CC(C)=CCN(c1ccc(OCc2ccccc2)cc1)C1CCN(C(=O)C2CCCC(C)N2CCC(C)C)CC1 (stereo not drawn) [Example 16, {4-[(4-Benzyloxy-phenyl)-(3-methyl-but-2-enyl)-amino]-piperidin-1-yl}-[6methyl-1-(3-methyl-butyl)-piperidin-2-yl]-methanone] | 45 | 78 | – | –
10 | CC(C)=CCN(c1ccc(OCc2ccccc2)cc1)C1CCN(C(=O)C2CC(C)CCN2CCC(C)C)CC1 (stereo not drawn) [Example 17, {4-[(4-Benzyloxy-phenyl)-(3-methyl-but-2-enyl)-amino]-piperidin-1-yl}-[4-methyl-1-(3-methyl-butyl)-piperidin-2-yl]-methanone] | 86 | 76 | – | –
11 | CC(C)=CCN(c1ccc(OCc2ccccc2)cc1)C1CCN(C(=O)C2C(C)CCCN2CCC(C)C)CC1 (stereo not drawn) [Example 18, {4-[(4-Benzyloxy-phenyl)-(3-methyl-but-2-enyl)-amino]-piperidin-1-yl}-[3-methyl-1-(3-methyl-butyl)-piperidin-2-yl]-methanone] | 60 | 88 | – | –
12 | CC(C)=CCN(c1ccc(OCc2ccccc2)cc1)C1CCN(Cc2ccco2)CC1 [Example 21, (4-Benzyloxy-phenyl)-(1-furan-2-ylmethyl-piperidin-4-yl)-(3-methyl-but-2-enyl)-amine] | – | – | 5.41 | –
13 | CC(C)=CCN(c1ccc(OCc2ccccc2)cc1)C1CCN(CCCc2ccccc2)CC1 [Example 22, (4-Benzyloxy-phenyl)-(3-methyl-but-2-enyl)-[1-(3-phenyl-propyl)-piperidin-4-yl]-amine] | – | – | 6.30 | –
14 | CC(C)=CCN(c1ccc(OCc2ccccc2)cc1)C1CCN(CCc2ccccc2)CC1 [Example 23, (4-Benzyloxy-phenyl)-(3-methyl-but-2-enyl)-(1-phenethyl-piperidin-4-yl)-amine] | – | – | 6.52 | –
15 | CC(C)=CCN(c1ccc(OCc2ccccc2)cc1)C1CCN(Cc2ccc(S(C)(=O)=O)cc2)CC1 [Example 24] | – | – | 5.74 | –
16 | CC(C)=CCN(c1ccc(OCc2ccccc2)cc1)C1CCN(Cc2ccc(F)cc2)CC1 [Example 25, (4-Benzyloxy-phenyl)-[1-(4-fluoro-benzyl)-piperidin4-yl]-(3-methyl-but-2-enyl)-amine] | 62 | – | – | –
17 | CC(C)=CCN(c1ccc(C(C)C)cc1)C1CCN(CCC(C)(C)C)CC1 [Example 26, [1-(3,3-Dimethyl-butyl)-piperidin-4-yl]-(4-isopropyl-phenyl)-(3-methyl-but-2-enyl)-amine] | 43 | – | – | –
18 | CC(C)=CCN(c1ccc(C(C)C)cc1)C1CCN(CCC(C)O)CC1 (stereo not drawn) [Example 27, 4-{4[(4Isopropyl-phenyl)-(3-methyl-but-2-enyl)-amino]-piperidin-1-yl}-butan-2ol] | 15 | – | – | –

Row | Structure (SMILES) | inhibition at 1 µM [%] | inhibition at 10 µM [%] | pIC50 | IMR 32 % of Blockade @ 1 μM (1 μM)
19 | CC(C)=CCN(c1ccc(C(C)C)cc1)C1CCN(CCC(C)C)CC1 [Example 28, (4-Isopropyl-phenyl)-(3-methyl-but-2-enyl)-[1-(3-methyl-butyl)-piperidin-4-yl]-amine] | 41 | – | – | –
20 | CC(C)=CCN(c1ccc(C(C)C)cc1)C1CCN(Cc2ccc(F)cc2)CC1 [Example 29, [1-(4-Fluoro-benzyl)-piperidin-4-yl]-(4-isopropyl-phenyl)-(3-methyl-but-2-enyl)-amine] | 17 | 84 | – | –
21 | CC(C)=CCN(c1ccc(C(C)C)cc1)C1CCN(Cc2cccnc2)CC1 [Example 30, (4-Isopropyl-phenyl)-(3-methyl-but-2-enyl)-(1-pyridin-3-ylmethyl-piperidin-4-yl)-amine] | 18 | 79 | – | –
22 | CC(C)=CCN(c1ccc(C(C)C)cc1)C1CCN(Cc2c[nH]cn2)CC1 [Example 31, [1-(1H-Imidazol-4-ylmethyl)-piperidin-4-yl]-(4-isopropyl-phenyl)-(3-methyl-but-2-enyl)-amine] | 7 | 62 | – | –
23 | CC(C)=CCN(c1ccc(C(C)C)cc1)C1CCN(C(C)CO)CC1 (stereo not drawn) [Example 32, 2-{4-[(4-lsopropyl-phenyl)-(3-methyl-but-2-enyl)-amino]-piperidin-1-yl}-propan-1-ol] | 0 | 70 | – | –
24 | CC(C)=CCN(c1ccc(C(C)C)cc1)C1CCN(Cc2ccc[nH]2)CC1 [Example 33, (4-Isopropyl-phenyl)-(3-methyl-but-2-enyl)-[1-(1H-pyrrol-2-ylmethyl)-piperidin-4-yl]-amine] | 54 | 98 | – | –
25 | CC(C)=CCN(c1ccc(OC(C)C)cc1)C1CCN(CCC(C)C)CC1 [Example 34, (4-Isopropoxy-phenyl)-(3-methyl-but-2-enyl)-[1-(3-methyl-butyl)-piperidin-4-yl]-amine] | 23 | 76 | – | –
26 | CC(C)=CCN(c1ccc(OC(C)C)cc1)C1CCN(Cc2ccc(F)cc2)CC1 [Example 35, [1-(4-Fluoro-benzyl)-piperidin-4-yl]-(4-isopropoxy-phenyl)-(3-methyl-but-2-enyl)-amine] | 37 | – | – | –
27 | CC(C)=CCN(c1ccc(OC(C)C)cc1)C1CCN(CCC(C)(C)C)CC1 [Example 36] | 26 | 74 | – | –
28 | CC(C)=CCN(c1ccc(CCC(C)(C)C)cc1)C1CCN(CCC(C)C)CC1 [Example 37, [4-(3,3-Dimethyl-butyl)-phenyl]-(3-methyl-but-2-enyl)-[1-(3-methyl-butyl)-piperidin-4-yl]-amine] | 31 | 92 | – | –
29 | CC(C)=CCN(c1ccc(CCC(C)(C)C)cc1)C1CCN(CCC(C)(C)C)CC1 [Example 38, [4-(3,3-Dimethyl-butyl)-phenyl]-[1-(3,3-dimethyl-butyl)-piperidin-4-yl]-(3-methyl-but-2-enyl)-amine] | 38 | 83 | – | –
30 | CC(C)=CCN(c1ccc(CCC(C)(C)C)cc1)C1CCN(Cc2ccc(N(C)C)cc2)CC1 [Example 39, [1-(4-Dimethylamino-benzyl)-piperidin-4-yl]-[4-(3,3-dimethyl-butyl)-phenyl]-(3-methyl-but-2-enyl)-amine] | – | – | – | 85% and 60%
31 | CC(C)CCN1CCC(N(CCC(C)C)c2ccc(OCC3CCCCC3)cc2)CC1 [Example 40, (4-Cyclohexylmethoxy-phenyl)-(3-methyl-butyl)-[1-(3-methyl-butyl)-piperidin-4-yl]-amine] | 72 | – | – | –
32 | CC(C)CCN(c1ccc(OCC2CCCCC2)cc1)C1CCN(CCC(C)O)CC1 (stereo not drawn) [Example 41, 4-{4-[(4-Cyclohexylmethoxy-phenyl)-(3-methyl-butyl)-amino]-piperidin-1-yl}-butan-2-ol] | – | – | 5.82 | –
33 | CC(C)CCN(c1ccc(OCC2CCCCC2)cc1)C1CCN(CCC(C)(C)C)CC1 [Example 42, (4-Cyclohexylmethoxy-phenyl)-[1-(3,3-dimethyl-butyl)-piperidin-4-yl]-(3-methyl-butyl)-amine] | 60 | 81 | – | –
34 | CC(C)CCN(c1ccc(OCc2ccc(F)cc2)cc1)C1CCN(CCC(C)(C)C)CC1 [Example 43, [1-(3,3-Dimethyl-butyl)-piperidin-4-yl]-[4-(4-fluoro-benzyloxy)-phenyl]-(3-methyl-butyl)-amine] | 65 | 99 | – | –
35 | CC(C)=CCN(c1ccc(C(C)C)cc1)C1CCN(C(=O)[C@@H](O)CC(C)C)CC1 [Example 45, (S)-2-Hydroxy-1-{4-[(4-isopropyl-phenyl)-(3-methyl-but-2-enyl)-arnino]-piperidin-1-yl}-4-methyl-pentan-1-one] | 28 | 85 | – | –
